Data as given in ChEMBL document CHEMBL4354805, “Discovery of MK-8719, a Potent O-GlcNAcase Inhibitor as a Potential Treatment for Tauopathies” (J Med Chem, 2019).

What was measured:
[1] = target: T1, Protein O-GlcNAcase (Rattus norvegicus, UniProt Q8VIJ5); assay: Inhibition of OGA in rat PC12 cells assessed as OGlcNAcylated protein level incubated for 24 hrs by ELISA; format: cell-based
T1 sequence (Q8VIJ5 whole entry): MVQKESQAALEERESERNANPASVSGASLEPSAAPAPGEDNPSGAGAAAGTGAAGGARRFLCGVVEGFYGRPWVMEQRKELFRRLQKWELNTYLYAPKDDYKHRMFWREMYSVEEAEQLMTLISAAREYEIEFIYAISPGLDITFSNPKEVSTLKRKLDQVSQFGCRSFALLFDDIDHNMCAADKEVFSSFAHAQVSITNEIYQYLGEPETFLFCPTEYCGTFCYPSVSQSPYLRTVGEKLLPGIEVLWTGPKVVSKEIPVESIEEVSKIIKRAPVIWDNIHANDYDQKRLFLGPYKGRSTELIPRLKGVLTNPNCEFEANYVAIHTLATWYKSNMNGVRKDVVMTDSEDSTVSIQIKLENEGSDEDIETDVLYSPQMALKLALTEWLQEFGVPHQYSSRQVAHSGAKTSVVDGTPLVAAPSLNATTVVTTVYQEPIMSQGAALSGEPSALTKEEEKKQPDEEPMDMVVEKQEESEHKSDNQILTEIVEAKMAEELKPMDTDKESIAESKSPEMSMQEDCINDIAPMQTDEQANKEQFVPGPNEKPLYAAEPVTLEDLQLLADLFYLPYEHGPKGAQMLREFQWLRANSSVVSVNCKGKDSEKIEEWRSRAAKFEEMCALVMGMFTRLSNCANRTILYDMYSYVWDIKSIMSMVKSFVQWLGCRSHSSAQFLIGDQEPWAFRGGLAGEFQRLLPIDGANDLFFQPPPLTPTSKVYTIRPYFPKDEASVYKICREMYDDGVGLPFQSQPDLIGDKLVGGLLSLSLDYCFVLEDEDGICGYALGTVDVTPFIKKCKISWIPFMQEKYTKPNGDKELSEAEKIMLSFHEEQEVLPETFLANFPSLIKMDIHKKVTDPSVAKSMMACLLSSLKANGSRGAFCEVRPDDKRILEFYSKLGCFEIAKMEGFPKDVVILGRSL

[2] = Volume of distribution at steady state in Wistar Han rat at 2 mg/kg, iv or 10 mg/kg, po; format: ADME, organism-based; details: in vivo, read-out: Vdss
[3] = target: T2, Beta-hexosaminidase subunit beta (Homo sapiens, UniProt P07686); assay: Inhibition of human beta hexosaminidase assessed as inhibitory constant using 4-methylumbelliferyl N-acetyl-beta-D-glucosaminide dihydrate as substrate measured every 60 sec for 45 mins by fluorescence spectrophotometry
T2 sequence (P07686 whole entry): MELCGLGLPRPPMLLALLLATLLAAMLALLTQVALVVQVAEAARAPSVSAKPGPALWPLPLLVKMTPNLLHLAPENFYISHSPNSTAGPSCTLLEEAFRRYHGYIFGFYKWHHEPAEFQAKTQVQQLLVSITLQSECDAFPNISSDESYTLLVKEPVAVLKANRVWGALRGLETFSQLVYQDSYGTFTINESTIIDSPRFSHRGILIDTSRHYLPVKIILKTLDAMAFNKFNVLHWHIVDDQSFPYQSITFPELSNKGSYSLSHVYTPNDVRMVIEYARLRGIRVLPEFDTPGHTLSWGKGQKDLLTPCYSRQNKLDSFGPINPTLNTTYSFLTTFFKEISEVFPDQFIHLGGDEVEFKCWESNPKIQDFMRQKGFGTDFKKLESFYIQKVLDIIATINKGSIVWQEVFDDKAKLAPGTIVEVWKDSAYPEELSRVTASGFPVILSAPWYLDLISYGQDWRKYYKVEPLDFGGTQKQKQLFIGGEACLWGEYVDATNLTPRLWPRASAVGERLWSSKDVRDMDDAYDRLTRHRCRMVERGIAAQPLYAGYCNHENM

[4] = Oral bioavailability in Wistar Han rat at 10 mg/kg; format: ADME, organism-based; details: in vivo
[5] = target: T3, Protein O-GlcNAcase (Homo sapiens, UniProt O60502); assay: Inhibition of recombinant human OGA
T3 sequence (O60502 whole entry): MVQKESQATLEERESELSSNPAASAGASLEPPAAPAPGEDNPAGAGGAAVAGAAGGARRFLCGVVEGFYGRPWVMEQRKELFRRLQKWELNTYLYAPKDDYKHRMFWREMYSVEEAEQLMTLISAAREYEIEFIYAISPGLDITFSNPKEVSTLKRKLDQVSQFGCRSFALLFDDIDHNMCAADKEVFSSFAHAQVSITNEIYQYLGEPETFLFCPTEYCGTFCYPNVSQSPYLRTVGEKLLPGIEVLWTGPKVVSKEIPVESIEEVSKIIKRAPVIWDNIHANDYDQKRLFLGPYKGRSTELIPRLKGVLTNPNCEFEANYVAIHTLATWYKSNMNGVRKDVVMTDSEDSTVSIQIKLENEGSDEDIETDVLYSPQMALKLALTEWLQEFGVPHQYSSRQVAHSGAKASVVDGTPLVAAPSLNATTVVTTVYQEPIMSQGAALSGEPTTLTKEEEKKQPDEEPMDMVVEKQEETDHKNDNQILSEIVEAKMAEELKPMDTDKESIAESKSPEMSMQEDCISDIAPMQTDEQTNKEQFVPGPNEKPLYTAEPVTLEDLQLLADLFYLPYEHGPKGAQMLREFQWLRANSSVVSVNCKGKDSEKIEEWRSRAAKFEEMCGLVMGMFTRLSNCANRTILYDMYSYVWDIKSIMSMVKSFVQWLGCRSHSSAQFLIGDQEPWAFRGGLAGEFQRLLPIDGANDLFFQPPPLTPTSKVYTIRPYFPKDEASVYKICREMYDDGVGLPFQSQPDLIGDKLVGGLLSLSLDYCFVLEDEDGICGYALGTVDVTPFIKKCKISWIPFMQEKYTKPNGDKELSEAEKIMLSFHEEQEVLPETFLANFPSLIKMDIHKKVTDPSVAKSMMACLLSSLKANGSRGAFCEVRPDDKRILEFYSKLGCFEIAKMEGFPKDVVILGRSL

[6] = Clearance in Wistar Han rat at 2 mg/kg, iv; format: ADME, organism-based; details: in vivo
[7] = Half life in Wistar Han rat at 2 mg/kg, iv; format: ADME, organism-based; details: in vivo
[8] = AUCN in Wistar Han rat at 10 mg/kg, po; format: ADME, organism-based; details: in vivo
[9] = target: T4, Nuclear receptor subfamily 1 group I member 2 (Homo sapiens, UniProt O75469); assay: Activation of PXR (unknown origin) assessed as CYP3A4 induction
T4 sequence (O75469 whole entry): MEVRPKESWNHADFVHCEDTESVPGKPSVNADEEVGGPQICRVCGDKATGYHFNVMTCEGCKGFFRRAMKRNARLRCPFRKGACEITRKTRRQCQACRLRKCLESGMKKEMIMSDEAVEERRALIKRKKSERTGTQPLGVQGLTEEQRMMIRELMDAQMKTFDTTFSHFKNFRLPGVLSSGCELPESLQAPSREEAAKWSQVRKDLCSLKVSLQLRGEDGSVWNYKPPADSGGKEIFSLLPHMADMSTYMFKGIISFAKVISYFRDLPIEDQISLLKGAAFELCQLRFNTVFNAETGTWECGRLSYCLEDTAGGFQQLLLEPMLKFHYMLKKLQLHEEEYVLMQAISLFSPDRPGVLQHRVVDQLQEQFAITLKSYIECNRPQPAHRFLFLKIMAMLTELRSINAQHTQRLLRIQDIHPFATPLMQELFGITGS

[10] = target: Cytochrome P450 3A4 (Homo sapiens, UniProt P08684); assay: Inhibition of CYP3A4 (unknown origin); format: ADME
[11] = target: Voltage-dependent L-type calcium channel subunit alpha-1C (Homo sapiens, UniProt Q13936); assay: Inhibition of Cav1.2 (unknown origin)
[12] = target: Cytochrome P450 2C9 (Homo sapiens, UniProt P11712); assay: Inhibition of CYP2C9 (unknown origin); format: ADME
[13] = target: Cytochrome P450 2D6 (Homo sapiens, UniProt P10635); assay: Inhibition of CYP2D6 (unknown origin); format: ADME
[14] = test system: MDR1; assay: Apparent permeability in pig LLC-PK1 cells transfected with MDR1; format: ADME, cell-based, Sus scrofa
[15] = target: Sodium channel protein type 5 subunit alpha (Homo sapiens, UniProt Q14524); assay: Inhibition of Nav1.5 (unknown origin)
[16] = target: Voltage-gated inwardly rectifying potassium channel KCNH2 (Homo sapiens, UniProt Q12809); assay: Displacement of MK-0499 from human ERG
[17] = test system: Rattus norvegicus; assay: Elevation of O-protein in rat brain at 3 mg/kg, po measured after 8 hrs relative to control; format: functional
[18] = Ratio of drug uptake in rat brain to plasma at 3 mg/kg, po measured after 8 hrs; format: ADME, organism-based; details: read-out: BPR
[19] = Drug uptake in rat brain at 3 mg/kg, po measured after 8 hrs; format: ADME, organism-based; details: in vivo
[20] = Volume of distribution at steady state in Wistar Han rat at 2 mg/kg, iv or 3 mg/kg, po; format: ADME, organism-based; details: in vivo, read-out: Vdss
[21] = Oral bioavailability in Wistar Han rat at 3 mg/kg; format: ADME, organism-based; details: in vivo
[22] = AUCN in Wistar Han rat at 3 mg/kg, po; format: ADME, organism-based; details: in vivo

Voltage-dependent L-type calcium channel subunit alpha-1C, sequence (Q13936 whole entry): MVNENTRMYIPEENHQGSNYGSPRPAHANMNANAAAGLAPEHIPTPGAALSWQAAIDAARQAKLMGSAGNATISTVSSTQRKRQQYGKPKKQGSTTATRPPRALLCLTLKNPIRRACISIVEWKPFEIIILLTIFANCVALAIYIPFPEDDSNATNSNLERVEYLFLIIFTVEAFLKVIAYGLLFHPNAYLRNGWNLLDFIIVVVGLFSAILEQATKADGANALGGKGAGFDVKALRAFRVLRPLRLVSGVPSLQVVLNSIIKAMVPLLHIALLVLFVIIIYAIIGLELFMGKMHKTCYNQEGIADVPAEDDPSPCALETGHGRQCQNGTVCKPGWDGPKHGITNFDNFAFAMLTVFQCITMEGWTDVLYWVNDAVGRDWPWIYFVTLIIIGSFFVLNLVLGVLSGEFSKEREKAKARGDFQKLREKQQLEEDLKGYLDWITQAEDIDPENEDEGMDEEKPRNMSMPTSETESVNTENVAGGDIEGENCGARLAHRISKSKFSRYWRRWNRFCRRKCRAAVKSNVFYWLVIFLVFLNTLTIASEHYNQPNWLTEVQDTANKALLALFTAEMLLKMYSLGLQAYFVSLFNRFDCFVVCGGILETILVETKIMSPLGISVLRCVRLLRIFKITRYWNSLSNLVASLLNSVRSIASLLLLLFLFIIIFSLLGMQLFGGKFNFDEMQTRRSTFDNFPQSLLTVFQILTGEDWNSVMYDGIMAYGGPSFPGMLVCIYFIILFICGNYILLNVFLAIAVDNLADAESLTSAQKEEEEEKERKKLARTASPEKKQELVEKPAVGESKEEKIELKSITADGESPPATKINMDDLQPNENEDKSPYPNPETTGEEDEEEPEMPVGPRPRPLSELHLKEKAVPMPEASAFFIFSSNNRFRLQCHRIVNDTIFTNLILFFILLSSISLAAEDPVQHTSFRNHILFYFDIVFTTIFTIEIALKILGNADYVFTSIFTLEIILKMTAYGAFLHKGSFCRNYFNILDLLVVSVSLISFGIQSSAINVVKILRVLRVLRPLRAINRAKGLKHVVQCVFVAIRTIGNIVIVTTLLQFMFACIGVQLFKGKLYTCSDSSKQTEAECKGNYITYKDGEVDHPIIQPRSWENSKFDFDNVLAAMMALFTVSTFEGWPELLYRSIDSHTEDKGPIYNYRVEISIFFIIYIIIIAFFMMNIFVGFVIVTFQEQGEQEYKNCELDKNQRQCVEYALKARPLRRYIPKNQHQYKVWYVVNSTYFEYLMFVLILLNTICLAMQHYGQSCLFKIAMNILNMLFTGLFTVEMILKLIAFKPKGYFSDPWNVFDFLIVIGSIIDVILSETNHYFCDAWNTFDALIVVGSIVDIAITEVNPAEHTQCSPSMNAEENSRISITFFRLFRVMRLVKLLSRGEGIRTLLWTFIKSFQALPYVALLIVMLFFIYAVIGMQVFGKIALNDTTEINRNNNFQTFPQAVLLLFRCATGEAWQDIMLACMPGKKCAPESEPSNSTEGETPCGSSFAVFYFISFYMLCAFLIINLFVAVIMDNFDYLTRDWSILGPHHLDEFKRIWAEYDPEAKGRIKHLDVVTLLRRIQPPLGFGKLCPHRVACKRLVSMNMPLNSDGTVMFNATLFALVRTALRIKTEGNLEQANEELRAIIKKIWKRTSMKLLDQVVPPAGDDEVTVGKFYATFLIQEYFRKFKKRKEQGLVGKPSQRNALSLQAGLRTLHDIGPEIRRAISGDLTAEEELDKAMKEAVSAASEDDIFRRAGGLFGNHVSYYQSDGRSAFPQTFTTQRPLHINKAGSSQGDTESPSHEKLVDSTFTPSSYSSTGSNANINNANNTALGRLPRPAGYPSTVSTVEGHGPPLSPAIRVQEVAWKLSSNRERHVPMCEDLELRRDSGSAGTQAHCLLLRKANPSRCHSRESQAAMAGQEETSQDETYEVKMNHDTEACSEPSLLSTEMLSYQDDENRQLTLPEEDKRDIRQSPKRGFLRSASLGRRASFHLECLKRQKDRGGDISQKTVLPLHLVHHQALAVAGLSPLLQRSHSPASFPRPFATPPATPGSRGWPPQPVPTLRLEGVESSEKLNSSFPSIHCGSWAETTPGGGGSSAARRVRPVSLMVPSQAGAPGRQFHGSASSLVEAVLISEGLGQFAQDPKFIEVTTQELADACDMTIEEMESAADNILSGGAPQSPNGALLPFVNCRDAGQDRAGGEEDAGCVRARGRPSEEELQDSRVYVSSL
Voltage-gated inwardly rectifying potassium channel KCNH2, sequence (Q12809 whole entry): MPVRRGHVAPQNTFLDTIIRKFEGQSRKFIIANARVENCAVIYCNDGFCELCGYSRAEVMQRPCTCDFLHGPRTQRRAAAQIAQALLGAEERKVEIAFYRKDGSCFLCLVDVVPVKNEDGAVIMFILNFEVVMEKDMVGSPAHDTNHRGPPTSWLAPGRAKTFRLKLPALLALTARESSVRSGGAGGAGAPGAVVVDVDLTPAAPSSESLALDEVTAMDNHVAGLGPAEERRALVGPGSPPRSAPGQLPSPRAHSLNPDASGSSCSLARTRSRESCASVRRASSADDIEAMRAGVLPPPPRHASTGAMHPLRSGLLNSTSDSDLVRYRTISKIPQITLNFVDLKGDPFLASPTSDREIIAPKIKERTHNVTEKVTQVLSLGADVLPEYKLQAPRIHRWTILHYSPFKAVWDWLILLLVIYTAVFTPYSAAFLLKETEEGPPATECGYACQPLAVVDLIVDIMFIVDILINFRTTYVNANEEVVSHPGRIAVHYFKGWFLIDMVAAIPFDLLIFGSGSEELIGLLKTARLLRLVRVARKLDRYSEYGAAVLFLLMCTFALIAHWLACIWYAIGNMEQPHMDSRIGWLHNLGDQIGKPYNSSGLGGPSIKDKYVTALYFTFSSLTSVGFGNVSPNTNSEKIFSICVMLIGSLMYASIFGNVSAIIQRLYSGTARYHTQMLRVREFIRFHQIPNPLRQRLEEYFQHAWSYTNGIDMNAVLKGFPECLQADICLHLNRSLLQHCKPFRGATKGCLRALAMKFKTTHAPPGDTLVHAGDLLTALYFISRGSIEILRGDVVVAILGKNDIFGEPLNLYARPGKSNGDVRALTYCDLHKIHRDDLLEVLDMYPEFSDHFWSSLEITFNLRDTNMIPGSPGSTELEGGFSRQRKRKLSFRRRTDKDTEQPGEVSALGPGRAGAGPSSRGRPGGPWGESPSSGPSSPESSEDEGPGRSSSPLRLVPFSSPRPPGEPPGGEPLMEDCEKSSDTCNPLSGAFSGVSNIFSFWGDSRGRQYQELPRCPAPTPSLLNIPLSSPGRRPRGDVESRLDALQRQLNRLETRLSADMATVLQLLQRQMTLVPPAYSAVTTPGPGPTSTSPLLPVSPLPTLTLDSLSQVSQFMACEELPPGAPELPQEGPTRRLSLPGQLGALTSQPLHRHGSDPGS
Cytochrome P450 3A4, sequence (P08684 whole entry): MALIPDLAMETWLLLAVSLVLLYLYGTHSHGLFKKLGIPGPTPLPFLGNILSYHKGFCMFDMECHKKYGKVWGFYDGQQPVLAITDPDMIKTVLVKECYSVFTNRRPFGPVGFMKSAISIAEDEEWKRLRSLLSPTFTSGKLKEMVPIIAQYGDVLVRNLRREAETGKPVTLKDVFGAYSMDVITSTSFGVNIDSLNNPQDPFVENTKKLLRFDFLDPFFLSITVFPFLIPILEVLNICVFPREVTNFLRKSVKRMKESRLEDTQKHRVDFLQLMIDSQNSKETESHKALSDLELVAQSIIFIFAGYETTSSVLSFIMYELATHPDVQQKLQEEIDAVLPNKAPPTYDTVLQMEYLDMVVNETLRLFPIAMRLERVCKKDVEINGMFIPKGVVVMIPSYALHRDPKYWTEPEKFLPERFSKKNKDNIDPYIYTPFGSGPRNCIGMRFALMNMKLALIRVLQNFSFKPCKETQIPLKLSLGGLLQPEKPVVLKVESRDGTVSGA
Cytochrome P450 2D6, sequence (P10635 whole entry): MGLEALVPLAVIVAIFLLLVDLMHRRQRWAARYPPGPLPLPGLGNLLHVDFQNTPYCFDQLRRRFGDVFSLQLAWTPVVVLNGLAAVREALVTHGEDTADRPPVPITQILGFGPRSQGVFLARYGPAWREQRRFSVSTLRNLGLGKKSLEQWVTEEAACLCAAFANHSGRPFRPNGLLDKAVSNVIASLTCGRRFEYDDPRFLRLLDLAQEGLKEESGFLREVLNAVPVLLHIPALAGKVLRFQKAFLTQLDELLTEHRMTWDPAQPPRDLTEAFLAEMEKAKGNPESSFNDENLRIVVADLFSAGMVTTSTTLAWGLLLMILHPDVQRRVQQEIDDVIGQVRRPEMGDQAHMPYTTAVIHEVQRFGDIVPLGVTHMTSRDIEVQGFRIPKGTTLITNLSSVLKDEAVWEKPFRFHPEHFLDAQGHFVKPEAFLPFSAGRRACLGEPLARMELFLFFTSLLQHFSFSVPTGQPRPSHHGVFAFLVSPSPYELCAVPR
Cytochrome P450 2C9, sequence (P11712 whole entry): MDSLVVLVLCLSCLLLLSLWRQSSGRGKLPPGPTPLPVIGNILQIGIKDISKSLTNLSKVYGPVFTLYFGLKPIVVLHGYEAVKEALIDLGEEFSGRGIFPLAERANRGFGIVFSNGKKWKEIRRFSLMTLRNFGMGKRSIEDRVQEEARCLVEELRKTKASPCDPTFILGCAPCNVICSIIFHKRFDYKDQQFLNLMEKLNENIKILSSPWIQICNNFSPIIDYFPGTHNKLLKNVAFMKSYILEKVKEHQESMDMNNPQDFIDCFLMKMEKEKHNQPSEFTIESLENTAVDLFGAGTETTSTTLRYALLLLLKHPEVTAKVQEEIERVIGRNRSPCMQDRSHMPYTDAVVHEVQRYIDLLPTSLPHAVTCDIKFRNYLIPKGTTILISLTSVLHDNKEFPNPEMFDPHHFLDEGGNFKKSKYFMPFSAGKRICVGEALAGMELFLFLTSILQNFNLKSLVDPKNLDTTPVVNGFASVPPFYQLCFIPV

| SMILES | EC50 [1] [µM] | Vd [2] [L/kg] | Ki [3] [µM] | bioavailability [4] [%] | Ki [5] [µM] | clearance [6] [mL/min/kg] | half-life [7] [h] | AUC/dose [8] [µM·kg·h/mg] | EC50 [9] [µM] | IC50 [10] [µM] | IC50 [12] [µM] | IC50 [13] [µM] | Papp [14] [×10⁻⁶ cm/s] | IC50 [11] [µM] | IC50 [15] [µM] | IC50 [16] [µM] | further results |
| --- | --- | --- | --- | --- | --- | --- | --- | --- | --- | --- | --- | --- | --- | --- | --- | --- | --- |
| CCNC1=N[C@H]2[C@H](O[C@H](CO)C(F)[C@@H]2O)S1 (some centres not stated) |  |  | > 10 |  | > 3 |  |  |  | > 30 | > 50 | > 50 | > 50 |  | > 30 | > 30 | > 30 |  |
| CCCNC1=N[C@@H]2[C@@H](O)[C@H](O)[C@@H](C(F)F)O[C@@H]2S1 | 0.0414 |  | > 10 |  | 0.0053 | 72.6 | 3.89 |  |  |  |  |  | 14 |  |  |  | fold change (FC) [17]: 1.81; Kp at 8 h [18]: 8.81; Drug uptake [19]: 0.193 nmol/g; Vd [20]: 5.99 L/kg; bioavailability [21]: 44.8%; AUC/dose [22]: 0.376 µM·kg·h/mg |
| CCCNC1=N[C@@H]2[C@@H](O)[C@H](O)[C@@H](CF)O[C@@H]2S1 | 0.119 |  | > 10 | 75.3 | 0.014 |  |  |  |  |  |  |  | 17 |  |  |  |  |

More lines, main results first:

| EC50 [1] [µM] | Vd [2] [L/kg] | Ki [3] [µM] | bioavailability [4] [%] | Ki [5] [µM] | clearance [6] [mL/min/kg] | half-life [7] [h] | AUC/dose [8] [µM·kg·h/mg] | EC50 [9] [µM] | IC50 [10] [µM] | IC50 [12] [µM] | IC50 [13] [µM] | Papp [14] [×10⁻⁶ cm/s] | SMILES | IC50 [11] [µM] | IC50 [15] [µM] | IC50 [16] [µM] | further results |
| --- | --- | --- | --- | --- | --- | --- | --- | --- | --- | --- | --- | --- | --- | --- | --- | --- | --- |
| 0.0331 | 2.8 | > 10 | 129 | 0.0094 | 39 | 1.06 | 2.53 |  |  |  |  |  | CNC1=N[C@@H]2C[C@H](O)[C@@H](CO)O[C@@H]2S1 |  |  |  |  |
|  |  | > 10 |  | > 3 |  |  |  | > 30 | > 50 | > 50 | > 50 | 7 | CCNC1=N[C@H]2[C@H](O[C@H](CO)C[C@@H]2O)S1 | > 30 | > 30 | > 30 |  |
| 0.028 | 2.88 | > 10 | 96 | 0.0033 | 53.6 | 1.63 | 1.15 |  |  |  |  |  | OC[C@H]1O[C@@H]2SC(N3CCC3)=N[C@@H]2[C@@H](O)[C@@H]1O |  |  |  |  |
